# Measured values from patent publication US9181234B2, “Antibacterial compounds” (priority 2010, dated 2015).
# How the values were obtained:
# [1] = test system: Haemophilus influenzae (Isolate ID ATCC 49247); experiment: Antibacterial activity, MIC, H. influenzae; assay type: cell-based; conditions: Haemophilus influenzae, ATCC49247; Gram negative strain; broth microdilution or agar dilution
# In short: (§1)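 Per CLSI standard M7-A7, minimum inhibitory concentrations were measured by agar dilution or by broth microdilution.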
# [2] = molecular target: T1, Gyrase enzyme (A2B2 complex from Staphylococcus aureus) (UniProt P0A0K8); experiment: Gyrase ATPase assay (S. aureus enzyme); assay type: biochemical; conditions: read-out: Gyrase ATPase activity (IC50); enzyme source (S. aureus or E. coli) not given; 1 mM ATP, 30° C., 60 minutes
# T1 construct: 2 mU/μl Gyrase enzyme (A2B2 complex from Staphylococcus aureus); Alternatively
# Procedure: On-Target Enzyme Assay: Determination of Gyrase ATPase Activity
# Gyrase converts ATP into ADP and inorganic phosphate. The released phosphate can be detected by the addition of malachite green solution and measured by monitoring the increase in absorbance at 600 nm. The ATPase assay is carried out in a buffer containing 2 mU/μl Gyrase enzyme (A2B2 complex from Staphylococcus aureus), 0.08 mg/ml double-stranded DNA, 8 mM HEPES.KOH pH 7.6, 100 mM K glutamate, 2 mM Mg acetate, 2 mM DTT, 0.01 mg/ml BSA, and 5% DMSO solution containing the inhibitor. Alternatively, the ATPase assay is carried out in a buffer containing 4.8 μg/mL Gyrase enzyme (A2B2 complex from Escherichia coli), 0.08 μg/mL ssDNA, 35 mM Tris pH 7.5, 24 mM KCl, 2 mM MgCl2, 6.5% Glycerol, 2 mM DTT, 1.8 mM Spermidine, 0.5 mg/mL BSA and 5% DMSO solution containing the inhibitor. The reaction is started by adding ATP to a final concentration of 1 mM and allowed to incubate at 30° C. for 60 minutes. The reaction is stopped by adding […] of malachite green solution (0.034% malachite green, 10 mM ammonium molybdate, 1 M HCl, 3.4% ethanol, 0.01% tween 20). Colour is allowed to develop for 5 minutes and the absorbance at 600 nm is measured spectrophotometrically. The IC50 values are determined from the absorbance readings using no compound and no enzyme controls.
# [3] = test system: Staphylococcus aureus (Isolate ID ATCC 29213); experiment: Antibacterial activity, MIC, S. aureus; assay type: cell-based; conditions: Staphylococcus aureus, ATCC29213, Gram positive strain; broth microdilution or agar dilution
# In short: as §1
# [4] = test system: Streptococcus pyogenes (Isolate ID ATCC 51339); experiment: Antibacterial activity, MIC, S. pyogenes; assay type: cell-based; conditions: Streptococcus pyogenes, ATCC51339, Gram positive strain; broth microdilution or agar dilution
# In short: as §1
# T1 sequence (P0A0K8 whole entry, one chain of several): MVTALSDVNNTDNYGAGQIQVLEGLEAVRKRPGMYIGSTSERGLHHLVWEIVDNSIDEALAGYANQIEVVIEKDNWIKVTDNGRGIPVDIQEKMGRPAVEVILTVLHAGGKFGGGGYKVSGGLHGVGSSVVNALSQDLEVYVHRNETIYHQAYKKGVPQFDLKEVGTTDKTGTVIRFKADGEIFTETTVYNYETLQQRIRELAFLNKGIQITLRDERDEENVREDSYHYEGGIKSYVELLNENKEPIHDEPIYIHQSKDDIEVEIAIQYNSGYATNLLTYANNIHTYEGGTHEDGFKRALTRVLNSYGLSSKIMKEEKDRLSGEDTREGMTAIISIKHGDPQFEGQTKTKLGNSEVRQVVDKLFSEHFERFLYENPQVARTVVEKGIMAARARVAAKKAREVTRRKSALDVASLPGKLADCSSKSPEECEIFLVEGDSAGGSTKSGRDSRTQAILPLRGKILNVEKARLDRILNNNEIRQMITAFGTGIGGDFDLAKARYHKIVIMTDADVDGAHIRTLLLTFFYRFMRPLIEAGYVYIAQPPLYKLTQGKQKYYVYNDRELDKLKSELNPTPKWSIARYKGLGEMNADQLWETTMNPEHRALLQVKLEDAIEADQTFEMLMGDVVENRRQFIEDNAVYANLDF
smiles,measurement,setting,value
"CCNC(=O)Nc1nc2cc(-c3nsc(N4CCC(CC)(C(=O)O)CC4)n3)cc(-c3ccccn3)c2s1 [Compound 232, 4-ethyl-1-(3-{2-[(ethylcarbamoyl)amino]-7-(pyridin-2-yl)-1,3-benzothiazol-5-yl}-1,2,4-thiadiazol-5-yl)piperidine-4-carboxylic acid]",MIC,[1],> 16 µg/mL
same,IC50,[2],930 nM
same,MIC,[3],1 to 16 µg/mL
same,MIC,[4],> 16 µg/mL
